Tests used:
[1] = target: APE1 exonuclease activity (Homo sapiens, UniProt P27695); test: Exonuclease assay for APE1 C-terminal (DNA base excision) activity; type: biochemical
[2] = test system: KSHV; test: KSHV lytic DNA replication (intracellular viral genomic DNA, real-time PCR) in TPA-induced BCBL-1 cells; type: cell-based, Kaposi's sarcoma-associated herpesvirus (KSHV); settings: Human gammaherpesvirus 8, BCBL1, compound added 3 h post-induction, intracellular viral genomic DNA at 48 h post-induction
[3] = test system: KSHV; test: KSHV virion production (encapsidated viral DNA in media) from TPA-induced BCBL-1 cells; type: cell-based, Kaposi's sarcoma-associated herpesvirus (KSHV); settings: for EC50: Human gammaherpesvirus 8, BCBL1, 120 h, TPA-induced BCBL-1, encapsidated viral DNA in media 5 days post-induction, read-out: EC50 for blocking KSHV virion production
[4] = target: T1, APE1 redox activity (Homo sapiens, UniProt P27695); test: EMSA-based assay for APE1 redox activity (APE1-dependent AP-1 DNA binding); type: biochemical; settings: reduced APE1 0.1 μM, purified c-jun/c-fos
T1 construct: 6xHis (N); made in house; host or cells: E. coli (Roseta)

[5] = test system: KSHV; test: KSHV lytic DNA replication in doxycycline-induced iSLK.219 cells; type: cell-based, Kaposi's sarcoma-associated herpesvirus (KSHV); settings: Human gammaherpesvirus 8, doxycycline 3 h, then C10, read-out: IC50 for viral lytic DNA replication
[6] = Cytotoxicity (MTT assay) in iSLK.219 cells; type: cell-based; settings: human
Text: The medium was replaced with DMSO.
(PDF) Click here for additional data file.

[7] = test system: AP-1 promoter; test: AP-1 promoter-luciferase reporter assay in 293T cells; type: cell-based, human; settings: TPA induction, varying C10 concentrations
[8] = test system: RTA promoter; type: cell-based, human
[9] = test system: KSHV-induced angiogenesis; test: Murine Matrigel plug assay of angiogenesis by KSHV-infected PDLSCs; type: in vivo; settings: C10 in varying concentrations mixed with Matrigel; C57BL/6 mice; day 7
Text: Next, we employed a murine Matrigel plug assay to examine the ability of C10 to inhibit angiogenesis […]. KSHV-infected and mock-infected PDLSCs were mixed with Matrigel (without any cytokines) and implanted into C57BL/6 mice. In day 7, the matrigel plugs were stripped and examined for new blood vessel formation. […] The effect of C10 on KSHV-mediated angiogenesis in the […] assay was quantitated by measuring the hemoglobin content after homogenizing the Matrigel plugs using Drabkin’s reagent. The result, shown in Fig 6C (right panel), is consistent with that of in vitro Matrigel tubule formation assay.
Female C57BL/6 mice (4 to 6 weeks old) were obtained from the Sun Yat-sen University Animal Center. Five animals were used per treatment group. 5-10x10^6 cells in 100–200 μl medium were prepared and thoroughly mixed with 500 μl matrigels to total volume of 600–800 μl, and subsequently implanted to mice by inguinal injection. After even days, the mice were killed and matrigel plugs were removed. The Matrigel plugs were photographed and subsequently dissolved in 1 ml Dispase reagent for 16 h at 37°C. After removal of debris by centrifugation, hemoglobin was qualified using Drabkin's reagent (Sigma-Aldrich).

[10] = test system: KSHV-infected PDLSCs; test: ELISA of angiogenic growth factors secreted by KSHV-infected PDLSCs; type: cell-based, human; settings: KSHV-PDLSCs treated 24 hours, media changed, collected after a further 24 hours
Text: (§1) KS has been considered as a cytokine disease as KS lesions over-produce cytokines, especially angiogenic growth factors, that contribute to the major pathogenic features of KS [53, 54]. In the early stage, KS is not a real sarcoma but an angiohyperplastic-inflammatory lesion mediated by inflammatory cytokines and angiogenic factors. The finding that the paracrine-regulated angiogenesis requires the redox function of APE1 (Fig 2) prompted us to further investigate if blockade of APE1 redox function by C10 could reduce cytokine and angiogenic factor production. […] Then the culture media were collected and examined for the expression of VEGF-A and IL-6 by ELISA.
(§2) Levels of VEGF-A, IL-6 and IL-8 in cell culture supernatants were determined using specific ELISA kits for human VEGF-A (eBioscience), IL-6 (BD) and IL-8 (Xin Bosheng, China) according to the manufacturer instructions.

[11] = test system: KSHV-infected HUVECs; test: ELISA of VEGF-A, IL-6 and IL-8 secreted by KSHV-infected HUVECs; type: cell-based, human; settings: S3 Fig
Text: as §1, §2
Supplementary file ppat.1006289.s003.pdf: S3 Fig Effects of C10 on KSHV-mediated secretion of VEGF-A, IL-6 and IL-8 from HUVECs. KSHV-infected HUVECs were treated with either C10 for 24 hours. After changing media to remove C10 from the media, cells were continued to culture for 24 hours. Then the culture media were collected and examined for the expression of VEGF-A, IL-6 and IL-8 by ELISA. (PDF) Click here for additional data file.

[12] = test system: KSHV
[13] = test system: KSHV; test: microbe, parasite or virus in culture; settings: Human gammaherpesvirus 8, 3 h, read-out: EC50 for virion production
[14] = target: T2, APE1 (Homo sapiens, UniProt P27695); test: Surface plasmon resonance (SPR) binding to APE1
[15] = Cytotoxicity by Trypan blue exclusion in BCBL-1 cells; settings: human
[16] = target: T2, APE1; test: Differential scanning fluorimetry (DSF) thermal shift of APE1; settings: APE1 2 μM, incubated with compound at 37°C for 30 min; melting curves shifted to the left
[17] = test system: KSHV-infected PDLSCs; test: In vitro Matrigel tube formation assay with KSHV-infected PDLSCs; settings: for paracrine-mediated angiogenesis (tubulogenesis of PDLSCs in conditioned media): conditioned media from KSHV-infected PDLSCs treated 24 hours with compound
[18] = test system: KSHV-infected PDLSCs; test: Matrigel-transwell cell invasion assay with KSHV-infected PDLSCs; settings: C10 in different concentrations
[19] = set-up: method as in PMID 18627350; settings: cited from earlier work
[20] = test system: pancreatic cancer; set-up: method as in PMID 21700832; settings: cell lines and pancreatic cancer xenograft model in mice; cited from earlier work
[21] = test system: retinal angiogenesis; set-up: method as in PMID 20937296, PMID 24624338; settings: in vitro and in an animal model; cited from earlier work
[22] = in vitro; settings: human

APE1 exonuclease activity, sequence (P27695 whole entry): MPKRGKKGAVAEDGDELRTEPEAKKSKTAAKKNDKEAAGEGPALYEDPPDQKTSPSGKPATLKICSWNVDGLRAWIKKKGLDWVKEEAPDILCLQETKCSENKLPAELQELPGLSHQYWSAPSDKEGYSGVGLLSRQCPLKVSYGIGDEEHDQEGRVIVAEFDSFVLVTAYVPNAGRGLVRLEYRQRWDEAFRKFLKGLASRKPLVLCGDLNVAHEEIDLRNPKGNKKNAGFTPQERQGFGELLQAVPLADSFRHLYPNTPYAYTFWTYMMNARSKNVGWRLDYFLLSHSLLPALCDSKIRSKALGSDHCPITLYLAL
T2 sequence (P27695 whole entry): as above
T1 sequence (P27695 whole entry): as above

Structure (SMILES): O=c1c(O)c(-c2cc(O)c(O)c(O)c2)oc2cc(O)cc(O)c12 [Myrecetin, reference compound]
- effect on APE1 exonuclease activity ([1]; positive control, different concentrations): dose-dependent inhibitory response

Structure (SMILES): Cc1ccc(/C=C/C(=O)CC(=O)/C=C/c2ccc(C)o2)o1 [C10, (1E,6E)-1,7-bis(5-methylfuran-2-yl) hepta-1-6-diene-3,5–dione]
- IC50 [2]: 4.6 µM
- fold by which EC50 (virion release) is lower than IC50 (intracellular viral DNA replication) ([3]; BCBL-1): 29 fold
- selectivity index (CC50 / EC50) ([3]; BCBL-1): 165
- EC50 [3]: 0.16 µM
- IC50 [4]: 17 µM
- effect on APE1 exonuclease activity ([1]; up to 100 μM of C10): unaffected
- IC50 [5]: 5.8 µM
- CC50 at 48 h [6]: 75 µM
- TPA-induced AP-1 promoter activity (luciferase) [7]: able to block
- TPA-induced RTA promoter activity (luciferase) [8]: able to block
- auto-regulation of the RTA promoter activity by RTA (luciferase) [8]: able to block auto-regulation of the RTA promoter activity
- KSHV-induced angiogenesis in Matrigel plug (blood vessel formation, hemoglobin content) [9]: dramatically inhibited in a dose dependent manner
- levels of secreted angiogenic growth factors (VEGF-A, IL-6) by ELISA [10]: able to reduce the levels of these angiogenic growth factors
- KSHV-induced productions of VEGF-A, IL-6 and IL-8 (ELISA) [11]: inhibited by C10
- SI (CC50 / EC50) [12]: 23.4
- EC50 [13]: 3.2 µM
- Kd [14]: 189 nM
- CC50 at 48 h [15]: 26.4 µM
- shift of the Tm of APE1 (DSF) [16]: 1.3 °C
- paracrine-mediated angiogenesis (tubulogenesis of PDLSCs in conditioned media) [17]: capable of inhibiting paracrine-mediated angiogenesis
- cell migration and invasion of KSHV-PDLSC (Transwell) [18]: able to block cell migration and invasion

Structure (SMILES): CCCCCCCCC/C(=C\C1=C(C)C(=O)C(OC)=C(OC)C1=O)C(=O)O [E3330]
- IC50 [2]: 17.7 µM
- EC50 [3]: 8.5 µM
- levels of secreted angiogenic growth factors (VEGF-A, IL-6) by ELISA [10]: able to reduce the levels of these angiogenic growth factors
- cytotoxicity [19]: low cytotoxicity
- tumor growth [20]: cause tumor growth inhibition
- retinal angiogenesis [21]: blocks retinal angiogenesis in vitro and in an animal model
- CC50 at 48 h [22]: 112 µM
- tubulogenesis of KSHV-PDLSC (total tube length) ([17]; compound present on Matrigel at different concentrations): showed inhibitory activity at higher doses
- paracrine-mediated angiogenesis (tubulogenesis of PDLSCs in conditioned media) [17]: capable of inhibiting paracrine-mediated angiogenesis
